Reference: patent US8664199B2, “Method and system for reversal of interactions between hydrophobically modified biopolymers and vesicles or cell membranes” (University of Maryland, College Park, priority 2010, dated 2014)
“Also recorded” adds a separate entry of the source.

Experiments:
human heparinized blood [1] = assay: Dynamic rheology of hm-chitosan blood gel; format: cell-based; details: 3 wt % α-CD, 0.25 wt % hm-chitosan blood gel, 37° C.
Procedure: (§1) 5 human subjects volunteered to have 20 mL of blood drawn by a registered nurse at the UMD School of Medicine. Subjects were healthy adults ranging age from 20 to 40 years of age (4 males, 1 female). 10 mL intervals of blood were drawn into Becton Dickinson Vacutainers® containing 143 USP units of sodium heparin. The protocol was approved by the Institutional Research Board (IRB) at UMD.
(§2) Steady and dynamic rheological experiments were performed on a […] AR2000 stress-controlled rheometer. A cone-and-plate geometry of 40 mm diameter and 4° cone angle was used and samples were run at the physiological temperature of 37° C. Dynamic frequency spectra were obtained in the linear viscoelastic regime of the samples, as determined from dynamic strain sweep experiments.

[2] = general statement, no test described; cited from earlier work
[3] = Steady shear rheology of hm-chitosan + vesicle mixtures; format: physicochemical; details: for zero-shear viscosity: hm-chitosan (benz-C18, 1.5% modified) 0.238 wt %, 37° C.; for zero-shear viscosity / viscosity drop on addition of cyclodextrin: vesicles 0.952 wt %; for viscosity drop on addition of cyclodextrin: 28.6 mM vs 0 mM cyclodextrin, hm-chitosan 0.238 wt %; for reversal of gelation of vesicles by hm-chitosan: hm-chitosan and vesicle mixtures
Excerpt: (§3) The surfactant system employed was a mixture of the cationic surfactant, cetyl trimethylammonium tosylate (CTAT), and the anionic surfactant, sodium dodecyl benzene sulfonate (SDBS). The surfactants were purchased from Aldrich, and all solutions were made using distilled-deionized water. The phase diagram for CTAT/SDBS mixtures has been reported previously.^31 To form vesicles, CTAT and SDBS were mixed at a weight ratio of 70/30, respectively, at a combined 2 wt % concentration in water. The mixture was stirred overnight to ensure complete dissolution and equilibration of the vesicles prior to experiments.
as §2
The concentrations of hm-chitosan and vesicles were held constant at 0.238 wt % and 0.952 wt %, respectively, in both samples. One sample contained 0 mM α-CD (open diamonds) and the other contained 28.6 mM α-CD (open circles).

[4] = Dynamic rheology of hm-chitosan + vesicle mixtures; format: physicochemical; details: 28.6 mM cyclodextrin; hm-chitosan 0.238 wt %, vesicles 0.952 wt %
Excerpt: as §3, §2
However, at practical time scales, the hm-chitosan+vesicle+α-CD mixture behaves as a freely flowing liquid.

human heparinized blood [5] = assay: Visual observation / vial inversion of blood gelled by hm-chitosan; format: cell-based; details: 3 wt % α-CD added to blood gel formed with 0.25 wt % hm-chitosan
Procedure: as §1
FIG. 3(a) is a photograph of human heparinized blood gelled by 0.25 wt % hm-chitosan. […] Note that this sample […] hold its own weight upon vial inversion.

SMILES | dynamic rheology response (G′, G″) of blood gel after supramolecule (human heparinized blood [1]) | solubility (solvent) [2] | zero-shear viscosity ([3]; 28.6 mM cyclodextrin) [Pa·s] | viscosity drop on addition of cyclodextrin [3] | reversal of gelation of vesicles by hm-chitosan [3] | dynamic rheology behaviour as ω→0 (long time scales) [4] | dynamic rheology response [4] | reversal of blood gelation (visual observation) (human heparinized blood [5]) | zero-shear viscosity ([3]; 0 mM cyclodextrin, in Pa·s) | viscosity drop relative to the drop caused by α-CD ([3]; 28.6 mM cyclodextrin)
OC[C@H]1O[C@@H]2O[C@H]3[C@H](O)[C@@H](O)[C@@H](O[C@H]4[C@H](O)[C@@H](O)[C@@H](O[C@H]5[C@H](O)[C@@H](O)[C@@H](O[C@H]6[C@H](O)[C@@H](O)[C@@H](O[C@H]7[C@H](O)[C@@H](O)[C@@H](O[C@H]1[C@H](O)[C@H]2O)O[C@@H]7CO)O[C@@H]6CO)O[C@@H]5CO)O[C@@H]4CO)O[C@@H]3CO [α-CD, α-cyclodextrin] | liquid-like with G″>G′ over the frequency range | soluble in water | ~0.01 | million-fold | reverse the gelation of vesicles by hm-chitosan | G′ and G″ are observed to overlap, indicating the onset of gelation over long time scales | viscous liquid | quickly reverse the gelling and convert the sample into a thin, flowing liquid; also recorded: instantly reverse the gelling and convert the sample into a thin, flowing liquid; also recorded: disruption of the gel into a freely flowing viscous liquid | – | –
OC[C@H]1O[C@@H]2O[C@H]3[C@H](O)[C@@H](O)[C@@H](O[C@H]4[C@H](O)[C@@H](O)[C@@H](O[C@H]5[C@H](O)[C@@H](O)[C@@H](O[C@H]6[C@H](O)[C@@H](O)[C@@H](O[C@H]7[C@H](O)[C@@H](O)[C@@H](O[C@H]8[C@H](O)[C@@H](O)[C@@H](O[C@H]1[C@H](O)[C@H]2O)O[C@@H]8CO)O[C@@H]7CO)O[C@@H]6CO)O[C@@H]5CO)O[C@@H]4CO)O[C@@H]3CO [β-CD, β-cyclodextrin] | – | more soluble in ethyl alcohol | – | – | – | – | – | – | – | –
OC[C@H]1O[C@@H]2O[C@H]3[C@H](O)[C@@H](O)[C@@H](O[C@H]4[C@H](O)[C@@H](O)[C@@H](O[C@H]5[C@H](O)[C@@H](O)[C@@H](O[C@H]6[C@H](O)[C@@H](O)[C@@H](O[C@H]7[C@H](O)[C@@H](O)[C@@H](O[C@H]8[C@H](O)[C@@H](O)[C@@H](O[C@H]9[C@H](O)[C@@H](O)[C@@H](O[C@H]1[C@H](O)[C@H]2O)O[C@@H]9CO)O[C@@H]8CO)O[C@@H]7CO)O[C@@H]6CO)O[C@@H]5CO)O[C@@H]4CO)O[C@@H]3CO [γ-CD, γ-cyclodextrin] | – | soluble in water | – | thousand-fold | reverse the gelation of vesicles by hm-chitosan | G′ and G″ are not observed to overlap, indicating that the sample does not become more gel-like as t→∞ | viscous liquid | – | ~10^1 | thousand-fold lower
